One data set deals with BT474 cells. Kind of data set: Anion exchange chromatography of extracts of cells treated with compound 10. It counts as cell-based. Conditions: BT474 cells treated with compound 10; peak at 49 minutes. As for the experimental part: (§1) Hsp90 was purified from pig mammary gland as described in Hughes et al., Bioorg Med Chem. 2012, 20(10):3298-3305. The purified protein (0.3 g) was mixed with an excess of compound 10. The unbound probe was removed by dialysis and the labeled protein subjected to microanion exchange chromatography using a Pharmacia SMART system. Column fractions (100 μL) were collected and analyzed for fluorescence in a plate reader. […] The chromatography experiment was then repeated on cell extracts prepared from MCF7 and BT474 cells treated with compound 10.

The test system of data set [1] is MCF7 cells. Described as above. The data set is classed as cell-based. The settings on record: MCF7 cells treated with compound 10; peak at 49 minutes. How it is done: as §1
Another data set has as its system MDA MB 468 xenografts. Kind of data set: Fluorescence imaging of HSP90 expression in mouse xenografts (IVIS imager, plate reader). It counts as in vivo, Mice. As for the experimental part:
Mice with MDA MB 468 xenografts were injected with either 0.1, 0.5 or 1 mg of compound 10 intravenously. The animals were then immediately imaged in real time in an IVIS Kinetic imager (Caliper Life Science) for the presence of fluorescence at 465ex/520em. After two hours the tumors were excised and examined for the presence of compound 10.
Red image (false, 1 vs. 2) clearly demarks the tumor over background signal (appearing very dark gray in FIG. 14A).
Measurements were made in the IVIS imager or by preparing cells extracts from the tumors and measuring their fluorescence in a microtitre plate reader.

The next data set deals with MDA-MB-468 tumor. Kind of data set: Tumor labeling experiment, frozen sections under fluorescent microscope. Conditions: 1 mg/mouse intraperitoneal; from 2 to 48 h; FIG. 12. It counts as in vivo, NOD/SCID mice. How it is done:
MDA-MB-468 tumor cells (5 M cells/mouse) were injected to the flank of NOD/SCID mice. After 3 weeks, tumor volumes reached 400-450 mm^3. Mice were treated/untreated with intraperitoneal injection of compound 10 (1 mg/mouse). After 2, 24, 48 and 72 hours, mice were sacrificed, and tumor tissues were frozen in OCT compound. FITC(+) cells in tumor tissues (frozen sections) were analyzed under fluorescent microscope (Axio Observer). In FIG. 12, the green staining from compound 10 fluorescence appears white or light gray.

A further data set relates to MCF-7. Kind of data set: Fluorescence microscopy uptake of probe in tumor cells. The data set is classed as cell-based, human. The settings on record: micromolar concentrations, FIG. 4. The text has this:
(§2) In one experiment, the fluorescein compound 10 was applied at micromolar concentrations to four types of tumor cells. […] The probe (10) fluoresces to give green staining in images obtained; in FIG. 4, the green staining appears white.

A further data set has as its system Huh7 cell line. The data set is described as above. The data set is classed as cell-based, human. Conditions: micromolar concentrations; Huh7, non-metastatic; FIG. 4.
Text: as §2

For a further data set, the system named is MDA-MB 468. The description is as above. It counts as cell-based, human. The settings on record: micromolar concentrations, FIG. 4.
Text: as §2

In a further data set the test system is BT474. The data set is described as above. The data set is classed as cell-based, human. The settings on record: micromolar concentrations, FIG. 4.
Text: as §2

The next data set deals with MCF cells. Kind of data set: Heat treatment of cells, compound 10 uptake, micro anion-exchange chromatography of extracts. The data set is classed as cell-based. Conditions: 10 μM, FIG. 13B. How it is done:
MCF cells were heated to 42° C. or maintained at 37° C. for 60 minutes. Compound 10 was added (10 μM) and after 60 minutes the cells harvested. Extracts were prepared and separated by micro anion-exchange chromatography. Column fractions were analyzed for the presence of compound 10.

Data set [2] deals with MCF7 cells. The experiment in a line: Compound 10 fluorescence in MCF7 cells with anti-Hsp90 antibody or competing compound 5. It counts as cell-based. The settings on record: FIG. 6B. As for the experimental part: In FIG. 6B, the compound was added in the presence of an antibody to Hsp90. […] DAPI (blue) highlights the nucleus of the cell. In FIG. 6 the green staining from compound 10 fluorescence appears white, while blue from the DAPI-stained nuclei appears gray.

Another data set has as its system xenografts (MDA-MB 468). The experiment in a line: Confocal analysis of xenograft tissue slices after IP injection. The data set is classed as in vivo. Conditions: harvested one hour after injection (IP), FIG. 8. As for the experimental part: Tissue slices were prepared from the harvested xenografts and prepared for analysis by confocal analysis. […] A tissue slice from the control experiment is shown in which the animal was injected with vehicle alone (DMSO). Only background fluorescence is detected. In FIG. 8 the green staining from compound 10 fluorescence appears white or light gray, while blue from the DAPI-stained nuclei appears dark gray.

Data set [3] relates to TZM-bl (Hela derived) cells infected with NL4.3 virus (HIV-1). The experiment in a line: Confocal microscopy of cells infected with HIV-1 treated with compound 10. The data set is classed as cell-based. As for the experimental part: TZM-bl (Hela derived) cells were added on glass coverslips in 24-well plates (1×10^5 cells/well) and were allowed to attach to cover slips overnight. For infection NL4.3 virus (HIV-1) was added to medium to achieve 10 ng/mL P24 protein concentration along with DEAE dextran at a final concentration 15 μg/mL. After 48 hours of infection, compound 10 was added to the medium and incubated for 1 hour at 37° C. Later the infected cells were washed twice with phosphate-buffered saline (PBS) and fixed for 20 min in 4% paraformaldehyde. They were washed twice with PBS and permeabilized for 30 min in 50% ice cold methanol on ice. Blocking was carried out using 1% FBS for 30 minutes at room temperature after two washes with PBS. Cells were then incubated for 2 hours at room temperature with antibody against HIV-1 capsid protein P24 at 1:100 dilutions in PBS. The antibody was obtained from the AIDS Reference and Reagent Program (HIV-1 p24 Monoclonal Antibody-183-H12-5C, Catalogue number: 3537). The cells were washed three times in PBS before and after 1 h of incubation with anti-mouse Texas Red secondary antibody (1:250). (Texas Red® Goat Anti-Mouse IgG (H+L), catalogue number: T682, Life technologies). […]

As to `Cc1nn(-c2ccc(C(N)=O)c(NCCCOCCOCCOCCOCCOCCCNC(=S)Nc3ccc4c(c3)C(=O)OC43c4ccc(O)cc4Oc4cc(O)ccc43)c2)c2c1C(=O)CC(C)(C)C2` [Compound 10, 2-((1-((3′,6′-dihydroxy-3-oxo-3H-spiro[isobenzofuran-1,9′-xanthen]-5-yl)amino)-1-thioxo-6,9,12,15,18-pentaoxa-2-azahenicosan-21-yl)amino)-4-(3,6,6-trimethyl-4-oxo-4,5,6,7-tetrahydro-1H-indazol-1-yl)benzamide], the “fluorescence peak of cell extract” value in the data set with BT474 cells and in the data set with MCF7 cells [1] was “co-elutes with Hsp90” throughout. In the data set with MDA MB 468 xenografts (indicated doses, IVIS imager or tumor cell extracts in plate reader, FIG. 14B, 14C), the “accumulation in tumors isolated from mice” value is given as “accumulates selectively within the tumor mass in a dose dependent manner”. In addition, the “accumulation in the xenograft, real time imaging” value in the data set with MDA MB 468 xenografts (tail vein injection, 465ex/520em, FIG. 14A) is “rapid accumulation”. In addition, in the data set on MDA-MB-468 tumor, the “FITC signal of tumor cells in frozen sections” value is reported as “intense FITC signal”. In addition, the “uptake of the probe” value is listed as “take up the probe readily” in the data set with MCF-7, “does not absorb the probe” in the data set with Huh7 cell line, “take up the probe readily” in the data set with MDA-MB 468 and “take up the probe readily” in the data set with BT474. Further, the “major peak of fluorescence of cell extract” value in the data set on MCF cells (60 minutes) is given as “correlates with elution of Hsp90”. The “effect of heat treatment on uptake” value in the data set with MCF cells (42° C. vs 37° C. for 60 minutes) is listed as “increased uptake”. Further, the “localisation of the probe in the presence of an antibody to Hsp90” value with MCF7 cells [2] is “accumulate at the membrane”. The “presence of compound in tumor cells of xenograft” value in the data set on xenografts (MDA-MB 468) is “detected within the tumor cells”. Besides, the “detection of HIV infected cells” value in data set [3] (48 hours of infection, 1 hour at 37° C., FIG. 16) is given as “can be used to detect cells infected with HIV”. For the same compound, the “recognition of uninfected cells” value in [3] (FIG. 16 panel D) is recorded as “do not recognize uninfected cells”.

Source of the values: patent publication US10927115B2, “Substituted heterocycles for targeting Hsp90” (Duke University, priority 2012, dated 2021).
